The source of these data is patent publication US20260217863A1, “ANTIBODY OR PEPTIDE BINDING SPECIFICALLY TO RNASE A, IMMUNOASSAY DEVICE AND METHOD FOR DETECTING RNASE A, AND METHOD FOR COLLECTING RNASE A” (UIF (University Industry Foundation), Yonsei University, priority 2022, published 2026).

pIC50: −log10 of the molar value. Where no end group is shown, it is not given here.

The target in this assay is T1, RNase A (Bos taurus, UniProt P61823).
T1 sequence (P61823 27-150): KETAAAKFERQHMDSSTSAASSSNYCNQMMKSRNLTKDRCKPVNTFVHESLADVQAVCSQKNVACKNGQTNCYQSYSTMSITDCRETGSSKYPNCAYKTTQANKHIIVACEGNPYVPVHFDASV
Nature of the assay: cCMP hydrolysis assay of RNase A inhibition (absorbance 286 nm). Format: biochemical, bovine. More on the design: Ribonuclease A (Type II-A) from bovine pancreas; purchased Sigma-Aldrich Korea; host or cells: bovine pancreas. As to conditions: inhibitor 0.1 nM to 1 μM, linear regression. The procedure:
The analysis of RNase A activity inhibition based on 2′,3′-cyclic CMP (cCMP) was performed by measuring the absorbance of cCMP at a wavelength of 286 nm. A mixture was prepared by combining Tris-acetate buffer (500 mM, pH=6.5, 200 μL), EDTA (5 mM, 200 μL), 2′,3′-cCMP (10 mM, 100 μL), RNase A (10 μg/mL, 100 μL), Fv variant (or synthetic peptides in the concentration range of 0.1 nM-1 μM), and DW (filled up to 1000 μL). The absorbance at 286 nm was measured using a Lamda35 UV-VIS spectrophotometer (Perkin-Elmer, MA, USA). The reaction was initiated by adding RNase A to the mixture, and the absorbance was measured every 3 minutes for a total of 30 minutes.
RNase A is known to degrade RNA by cleaving the phosphodiester bonds between nucleotides. The cleavage of the phosphodiester bonds occurs through a two-step reaction: (1) the formation of a […] and (2) the subsequent degradation of a 2′,3′-cyclic phosphate intermediate. […] Specifically, it was utilized that the absorbance at 286 nm quantitatively increases as 3′-CMP increases due to the hydrolysis of cCMP, as shown in FIG. 13. […] The inhibition curves of the Fv antibodies were plotted linearly, and the IC50 values were calculated by linear regression, as shown in FIG. 15. […]
The analysis of RNase A activity inhibition based on 2′,3′-cyclic CMP (cCMP) was performed by measuring the absorbance of cCMP at a wavelength of 286 nm. […] The absorbance at 286 nm was measured using a Lamda35 UV-VIS spectrophotometer (Perkin-Elmer, MA, USA). The reaction was initiated by adding RNase A to the mixture, and the absorbance was measured every 3 minutes for a total of 30 minutes.
RNase A is known to degrade RNA by cleaving the phosphodiester bonds between nucleotides. […] Specifically, it was utilized that the absorbance at 286 nm quantitatively increases as 3′-CMP increases due to the hydrolysis of cCMP, as shown in FIG. 13. […] The inhibition curves of the Fv antibodies were plotted linearly, and the IC50 values were calculated by linear regression, as shown in FIG. 15.
Regarding DGTAKKSRKDD [Peptide-3], the pIC50 was 6.45.

CGPDSDVMTDF [Peptide-1] had a pIC50 of 6.22.

Regarding YGPVGRVKRDD [Peptide-2], the pIC50 is 6.43.
